Target: Epidermal growth factor receptor (Homo sapiens, UniProt P00533)
Experiment: Inhibition of EGFR-mediated polyGAT phosphorylation at 10 uM

Sequence of Epidermal growth factor receptor (P00533 whole entry): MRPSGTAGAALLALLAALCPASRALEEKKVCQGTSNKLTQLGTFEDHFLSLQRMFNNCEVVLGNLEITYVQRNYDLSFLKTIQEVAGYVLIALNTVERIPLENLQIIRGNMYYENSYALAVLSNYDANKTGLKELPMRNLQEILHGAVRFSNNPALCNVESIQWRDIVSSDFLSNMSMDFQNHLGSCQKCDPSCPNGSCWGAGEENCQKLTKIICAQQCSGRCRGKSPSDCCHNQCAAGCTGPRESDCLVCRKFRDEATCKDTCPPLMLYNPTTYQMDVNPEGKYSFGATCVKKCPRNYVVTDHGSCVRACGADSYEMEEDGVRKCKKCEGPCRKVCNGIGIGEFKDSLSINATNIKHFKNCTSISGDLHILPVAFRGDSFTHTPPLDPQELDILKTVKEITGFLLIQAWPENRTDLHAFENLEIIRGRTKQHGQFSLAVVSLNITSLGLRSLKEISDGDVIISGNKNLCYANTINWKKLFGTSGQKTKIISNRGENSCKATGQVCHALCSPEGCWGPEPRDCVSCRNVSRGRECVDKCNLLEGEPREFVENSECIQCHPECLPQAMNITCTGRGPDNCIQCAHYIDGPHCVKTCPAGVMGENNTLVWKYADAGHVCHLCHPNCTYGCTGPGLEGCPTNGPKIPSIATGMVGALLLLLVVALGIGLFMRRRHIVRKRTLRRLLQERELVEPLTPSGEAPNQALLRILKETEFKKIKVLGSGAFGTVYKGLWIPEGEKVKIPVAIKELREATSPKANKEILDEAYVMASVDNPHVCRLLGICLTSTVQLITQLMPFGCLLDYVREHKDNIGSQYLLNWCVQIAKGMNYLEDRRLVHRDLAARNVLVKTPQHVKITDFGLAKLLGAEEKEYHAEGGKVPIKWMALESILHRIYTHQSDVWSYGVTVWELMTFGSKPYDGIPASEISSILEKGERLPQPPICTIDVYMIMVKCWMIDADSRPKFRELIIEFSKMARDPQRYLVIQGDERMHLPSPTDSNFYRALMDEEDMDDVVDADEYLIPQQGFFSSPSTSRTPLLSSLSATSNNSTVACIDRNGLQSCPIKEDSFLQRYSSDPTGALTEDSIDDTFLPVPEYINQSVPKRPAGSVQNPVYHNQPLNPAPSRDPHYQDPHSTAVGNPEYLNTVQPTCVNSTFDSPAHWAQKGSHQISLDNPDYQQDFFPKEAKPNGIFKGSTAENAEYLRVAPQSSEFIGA

IC50: 710 nM
Structure (SMILES): O=C1NC(=O)N(CCc2ccccc2)/C1=C/c1ccc(O)cc1

From ChEMBL document CHEMBL1146012, “5-benzylidene-hydantoins as new EGFR inhibitors with antiproliferative activity” (Bioorg Med Chem Lett, 2006)
